The record followed here is ChEMBL document CHEMBL6182944, “Substrate Specificity of the Organic Cation Transporters MATE1 and MATE2K and Functional Overlap with OCT1 and OCT2” (J Med Chem, 2025).

One data set deals with T1, MATE1 (Homo sapiens, UniProt Q96FL8).
T1 sequence (Q96FL8 whole entry): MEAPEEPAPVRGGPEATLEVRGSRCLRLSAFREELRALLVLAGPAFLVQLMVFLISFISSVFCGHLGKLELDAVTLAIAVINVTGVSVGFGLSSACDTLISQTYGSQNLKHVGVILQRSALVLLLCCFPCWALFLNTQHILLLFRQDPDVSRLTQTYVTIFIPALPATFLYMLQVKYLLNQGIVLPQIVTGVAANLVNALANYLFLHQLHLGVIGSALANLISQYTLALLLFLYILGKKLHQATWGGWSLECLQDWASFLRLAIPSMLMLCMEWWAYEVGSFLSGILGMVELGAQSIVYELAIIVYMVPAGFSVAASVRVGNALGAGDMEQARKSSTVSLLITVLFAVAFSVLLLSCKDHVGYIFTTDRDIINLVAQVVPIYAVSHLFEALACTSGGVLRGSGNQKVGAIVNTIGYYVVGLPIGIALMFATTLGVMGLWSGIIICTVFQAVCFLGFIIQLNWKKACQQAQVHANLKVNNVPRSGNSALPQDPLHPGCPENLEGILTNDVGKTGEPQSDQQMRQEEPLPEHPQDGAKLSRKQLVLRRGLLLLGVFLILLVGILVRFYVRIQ
The data set is described as follows: in vitro.

The target in the next data set is T2, MATE2-K (Homo sapiens, UniProt Q86VL8).
T2 sequence (Q86VL8 whole entry): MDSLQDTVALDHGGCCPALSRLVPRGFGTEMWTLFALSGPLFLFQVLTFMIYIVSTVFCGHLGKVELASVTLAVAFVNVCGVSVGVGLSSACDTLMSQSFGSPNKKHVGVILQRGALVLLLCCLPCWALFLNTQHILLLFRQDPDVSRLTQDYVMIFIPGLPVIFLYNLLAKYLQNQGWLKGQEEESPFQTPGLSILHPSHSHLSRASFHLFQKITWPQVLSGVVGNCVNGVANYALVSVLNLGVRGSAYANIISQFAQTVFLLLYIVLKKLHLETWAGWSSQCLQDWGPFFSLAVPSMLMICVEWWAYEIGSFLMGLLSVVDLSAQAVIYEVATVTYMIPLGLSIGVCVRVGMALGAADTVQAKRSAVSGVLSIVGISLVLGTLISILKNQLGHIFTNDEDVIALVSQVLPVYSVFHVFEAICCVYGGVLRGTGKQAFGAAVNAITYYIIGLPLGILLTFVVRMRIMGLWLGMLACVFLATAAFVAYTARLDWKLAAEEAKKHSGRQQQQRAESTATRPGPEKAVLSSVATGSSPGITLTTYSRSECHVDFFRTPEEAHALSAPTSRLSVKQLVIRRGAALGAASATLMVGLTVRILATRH
The data set is described as follows: in vitro.

For data set [1], the target named is T3, Multidrug and toxin extrusion protein 1 (Homo sapiens, UniProt Q96FL8).
T3 sequence (Q96FL8 whole entry): T1 sequence (Q96FL8 whole entry)
As to the kind of experiment: Substrate activity at MATE1 (unknown origin) expressed in HEK293 cells assessed as intrinsic clearance by measuring ratio of Vmax (maximum transport velocity) over Km measured per mg of protein by HPLC-MS/MS analysis. It counts as cell-based.

Data set [2] has as its target T3, Multidrug and toxin extrusion protein 1. The data set is described as follows: Substrate activity at MATE1 (unknown origin) expressed in HEK293 cells assessed as Vmax (maximum transport velocity) by HPLC-MS/MS analysis. Format: cell-based.
The target of data set [3] is T4, Multidrug and toxin extrusion protein 2 (Homo sapiens, UniProt Q86VL8).
T4 sequence (Q86VL8 whole entry): T2 sequence (Q86VL8 whole entry)
The data set is described as follows: Substrate activity at MATE2-K (unknown origin) expressed in HEK293 cells assessed as intrinsic clearance by measuring ratio of Vmax (maximum transport velocity) over Km measured per mg of protein by HPLC-MS/MS analysis. It counts as cell-based.

[4] abbreviates: HEK293 cells expressing MATE2-K.

With `NCCCCN` [PUTRESCINE], the uptake ratio at 1 min, 2.5 µM on MATE1 (hek293) and at MATE2-K (hek293) was under 2 in each case.

In general, Vmax refers to the rate approached at saturating substrate. For `Cc1ncc(CO)c(CO)c1O` [PYRIDOXINE], the values for the uptake ratio at 1 min, 2.5 µM on MATE1 (hek293) and on MATE2-K (hek293) were over 2 and under 2, respectively. Besides, the CL in data set [1] amounted to 2.37 µL/min; in data set [3] it was 1.2 µL/min. In addition, the Vmax in data set [2] was 10014 pmol/min.

Regarding `CNC(=C[N+](=O)[O-])NCCSCc1ccc(CN(C)C)o1` [RANITIDINE], the uptake ratio at 1 min, 2.5 µM on MATE1 (hek293) and on MATE2-K (hek293) was over 2 in each case.

In the case of `C#CCN[C@@H]1CCc2ccccc21` [RASAGILINE], the maximum rate (Vmax) in data set [2] is on record as 194 pmol/min.

For `CN(C)CCc1c[nH]c2ccc(Cn3cncn3)cc12` [RIZATRIPTAN], the uptake ratio at 1 min, 2.5 µM on MATE1 (HEK293 cells expressing MATE1) and at MATE2-K (setting [4]) was over 2 each time.

In the case of `CNCc1ccc(-c2[nH]c3cc(F)cc4c3c2CCNC4=O)cc1` [RUCAPARIB], the uptake ratio at 1 min, 2.5 µM on MATE1 (HEK293 cells expressing MATE1) and on MATE2-K (setting [4]) was over 2 in each case.

Consider `CCN(CC)CCNC(=O)c1ccc(NS(C)(=O)=O)cc1` [SEMATILIDE], for which the uptake ratio at 1 min, 2.5 µM at MATE1 (HEK293 cells expressing MATE1) and at MATE2-K (setting [4]) was over 2 in each case.

For `NCCc1c[nH]c2ccc(O)cc12` [SEROTONIN], the uptake ratio at 1 min, 2.5 µM on MATE1 (HEK293 cells expressing MATE1) and at MATE2-K (setting [4]) was over 2 each time.

For the compound `N[C@@H](CC(=O)N1CCn2c(nnc2C(F)(F)F)C1)Cc1cc(F)c(F)cc1F` [SITAGLIPTIN], the uptake ratio at 1 min, 2.5 µM on MATE1 (HEK293 cells expressing MATE1) and at MATE2-K (setting [4]) was over 2 throughout.

For `CC(C)NCC(O)c1ccc(NS(C)(=O)=O)cc1` (stereo not given) [SOTALOL], the uptake ratio at 1 min, 2.5 µM is over 2 on MATE1 (HEK293 cells expressing MATE1) and under 2 at MATE2-K (setting [4]).

Take `NCCCCNCCCN` [SPERMIDINE]: the uptake ratio at 1 min, 2.5 µM on MATE1 (HEK293 cells expressing MATE1) and at MATE2-K (setting [4]) was under 2 throughout.

Turning to `NCCCNCCCCNCCCN` [SPERMINE], the uptake ratio at 1 min, 2.5 µM at MATE1 (hek293) and at MATE2-K (hek293) was under 2 in each case.

With `Cn1nnc2c(C(N)=O)ncn2c1=O` [TEMOZOLOMIDE], the uptake ratio at 1 min, 2.5 µM on MATE1 (HEK293 cells expressing MATE1) and on MATE2-K (setting [4]) was under 2 throughout.

For `CC(C)(C)NCC(O)c1cc(O)cc(O)c1` (stereo not given) [TERBUTALINE], the uptake ratio at 1 min, 2.5 µM on MATE1 (HEK293 cells expressing MATE1) and at MATE2-K (setting [4]) was over 2 each time.

As for `CC[C@@]1(O)C(=O)OCc2c1cc1n(c2=O)Cc2cc3c(CN(C)C)c(O)ccc3nc2-1` [TOPOTECAN], the uptake ratio at 1 min, 2.5 µM at MATE1 (HEK293 cells expressing MATE1) and at MATE2-K (setting [4]) was over 2 throughout.

`O=C(O[C@H]1C[C@H]2CC[C@@H](C1)[N+]21CCCC1)C(O)(c1ccccc1)c1ccccc1` [TROSPIUM]: the uptake ratio at 1 min, 2.5 µM was over 2 on MATE1 (HEK293 cells expressing MATE1) and under 2 on MATE2-K (setting [4]).

For `C=CCN1CCCC1CNC(=O)c1cc(S(N)(=O)=O)cc(OC)c1OC` (stereo not given) [VERALIPRIDE], the uptake ratio at 1 min, 2.5 µM at MATE1 (HEK293 cells expressing MATE1) and at MATE2-K (setting [4]) was over 2 each time.

Regarding `O=C(NCCNCC(O)COc1ccc(O)cc1)N1CCOCC1` (stereo not given) [XAMOTEROL], the uptake ratio at 1 min, 2.5 µM on MATE1 (HEK293 cells expressing MATE1) and at MATE2-K (setting [4]) was over 2 throughout.

For the compound `Nc1ccn([C@H]2CC[C@@H](CO)O2)c(=O)n1` [ZALCITABINE], in data set [1], the CL came to 6.53 µL/min. Further, the Vmax in data set [2] is reported as 10171 pmol/min.

Consider `O=c1ncccn1[C@@H]1O[C@H](CO)[C@@H](O)[C@H]1O` [ZEBULARINE], for which the uptake ratio at 1 min, 2.5 µM at MATE1 (HEK293 cells expressing MATE1) and at MATE2-K (setting [4]) was under 2 throughout.

Regarding `CN(C)CCc1c[nH]c2ccc(C[C@H]3COC(=O)N3)cc12` [ZOLMITRIPTAN], the CL came to 65.2 µL/min in data set [1] and 17.6 µL/min in data set [3]. For the same compound, the maximal velocity (Vmax) in data set [2] amounted to 2992 pmol/min.
